# Measured values from patent US12570657B2, “Mesylate salts of heterocyclic cytokinins, compositions containing these derivatives and use thereof” (UNIVERZITA PALACKEHO V OLOMOUCI, priority 2020, dated 2026).
# Structures can show the parent of a compound that is named as a salt.
# Key:
# [1] = test system: cytokinin-dependent tobacco callus; assay: Tobacco callus biotest (stimulation of plant cell division); type: cell-based, Nicotiana tabacum L. cv. Wisconsin 38; details: for activity (%) [10^−5 mol · l^−1 BAP = 100%]: callus growth at concentration with highest activity, 10^−5 M BAP = 100%; for concentration with highest activity: tobacco callus fresh weight increase, four weeks
# Protocol: Stimulation effect of the cytokinin mesylates was tested in tobacco callus biotest using cytokinin dependent tobacco callus. Cytokinin-dependent tobacco callus Nicotiana tabacum L. cv. […] Subcultivation was carried out every three weeks. Fourteen days before the bioassay, the callus tissue was transferred to the media without BAP. Biological activity was determined from the increase in fresh callus weight after four weeks of cultivation. Five replicates were prepared for each cytokinin concentration and the entire test was repeated twice. […] Relative activity of the compound at this concentration was calculated (Tab. 15). The activity obtained for 10^−5 M 6-benzylaminopurine (BAP) was postulated as 100%. The cytokinin bases to be tested were dissolved in dimethylsulfoxide (DMSO) and the solution brought up to 10^−3 M with distilled water. The mesylate salts were dissolved directly in distilled water.
# [2] = test system: K562 (chronic myeloid leukemia); assay: In vitro cytotoxicity, Calcein AM assay, K-562; type: cell-based; details: 3-day Calcein-AM assay
# Description: (§1) Because toxic compounds adversely affect cell metabolic processes, many standard cytotoxicity assays are based on measuring the rate of metabolism of various artificial substrates. The resulting product is then quantified, for example, by spectrometry. Assays can be easily modified for use in 96-well plates, A microtiter assay based on the quantification of Calcein AM metabolism was used to evaluate the cytotoxicity of cytokinins, for example meta-topolin, ortho-topolin, kinetin, BAP or its mesylate salts, but also a number of other cytokinin mesylate derivatives according to the invention. The test is widely used in drug screening programs and in chemosensitivity testing. In living cells, Calcein AM is enzymatically hydrolyzed and the accumulation of the resulting calcein is manifested by green fluorescence. […] These cells were maintained in standard DMEM or RPMI medium (Sigma, MO, USA) supplemented with heat-inactivated fetal bovine serum (10%) with 2 mM L-glutamine and penicillin-streptomycin (1%) under standard cell culture conditions (37° C., 5% CO2 in a humid environment) and subcultured two or three times a week using a standard trypsinization procedure. Approximately 10,000 cells in 80 μl of medium were seeded in a 96-well microtiter plate. After 12 hours of incubation, the compounds to be tested were added in 20 μl aliquots. Control cultures were treated with DMSO alone. […] After 72 hours of incubation, Calcein AM solution (Molecular Probes) was added to a final concentration of 1 μg/ml and the cells were incubated for another hour.
# (§2) Cytoxicity of compounds was tested on panel of cell lines of different histogenetic and species origin.
# [3] = test system: CEM (T-lymphoblastic leukemia); assay: In vitro cytotoxicity, Calcein AM assay, CEM; type: cell-based; details: 3-day Calcein-AM assay
# Description: as §1, §2
# [4] = test system: MCF-7 (breast adenocarcinoma); assay: In vitro cytotoxicity, Calcein AM assay, MCF7; type: cell-based; details: 3-day Calcein-AM assay
# Description: as §1, §2
# [5] = test system: winter wheat leaf segments; assay: Senescence bioassay: retention of chlorophyll in excised winter wheat leaf tips; type: in vivo, Triticum aestivum cv. Hereward; details: for activity (%) [10^−4 mol · l^−1 BAP = 100%]: chlorophyll retention at concentration with highest activity, 10^−4 M BAP = 100%; for concentration with highest activity: chlorophyll retention, excised wheat leaf tips, 96 h dark
# Protocol: Seeds of winter wheat, Triticum aestivum cv. Hereward, were washed under running water for 24 hours and then sown on vermiculite soaked with Knop's solution. They were placed in a growth chamber at 25° C. with a 16/8 h light/dark period at 50 μmol·m^−2·s^−1. After 7 days, the first leaf was fully developed and the second leaf had started to grow. A tip section of the first leaf, approximately 35 mm long, was removed from 5 seedlings and trimmed slightly to a combined weight of 100 mg. The basal ends of the five leaf tips were placed in the wells of a microtiter polystyrene plate containing 150 μl of each tested compound solution. The entire plate was inserted into a plastic box lined with paper tissues soaked in distilled water to prevent leaf sections from drying out. After 96 h incubation in the dark at 25° C., the leaves were removed and chlorophyll extracted by heating at 80° C. for 10 min in 5 ml of 80% ethanol (v/v). The sample volume was then restored to 5 ml by the addition of 80% ethanol (v/v). The absorbance of the extract was recorded at 665 nm. In addition, chlorophyll extracts from fresh leaves and leaf tips incubated in deionised water were measured. […] Relative activity of the compound at this concentration was calculated (Tab. 3). The activity obtained for 10^−4 M 6-benzylaminopurine (BAP) was postulated as 100%. The values shown are means of five replicates and the whole experiment was repeated twice. The tested cytokinin bases were dissolved in dimethylsulfoxide (DMSO) and the solution brought up to 10^−3 M with distilled water. Cytokinin mesylate salts which are more water-soluble (BAP mesylate, meta-topolin mesylate and kinetin mesylate) could be directly dissolved to form a 10^−3 M solution in distilled water.
# [6] = test system: HL-60 (promyelocytic, leukemia); assay: In vitro cytotoxicity, Calcein AM assay, HL60; type: cell-based; details: 3-day Calcein-AM assay
# Description: as §1, §2
# HOS (human osteosarcoma) = assay: In vitro cytotoxicity, Calcein AM assay, HOS; type: cell-based; details: 3-day Calcein-AM assay
# Description: as §1, §2
# [7] = test system: Spring barley (variety Francin); assay: Field trial: grain yield and productive tillers of spring barley after foliar spray; type: in vivo; details: 5 uMol
# Protocol: Spring barley (variety Francin) was treated in 2019 at the locality in Olomouc, sprayed with substances—marked BAP (benzylaminopurine), meta-topolin mesylate and BAP mesylate. The seed was 3.5 million germinating seeds, the experiment was established in 5 randomized replicates for each variant, the control was an untreated variant. The experiment was performed according to the GEP (Good Experimental Practice) methodology, the size of individual plots was 10 m^2. The application of the substances was carried out at a rate of 300 l/ha, in the growth phase BBCH 31-33 (beginning of peeling).
# [8] = application BBCH 31-33, untreated control = 100
smiles,measurement,setting,value
"CC(CO)CCNc1ncnc2[nH]cnc12.CS(=O)(=O)O (racemic) [DHZ mesylate, (RS)-4-((9H-Purin Ylamino)-2-Methylbutan-1-ol) Methanesulphonate]",activity (%) [10^−5 mol · l^−1 BAP = 100%],[1],78%
same,concentration with highest activity,[1],10^−6 mol · l^−1
same,IC50,[2],> 167 µM
same,IC50,[3],> 167 µM
same,IC50,[4],> 167 µM
same,activity (%) [10^−4 mol · l^−1 BAP = 100%],[5],82%
same,concentration with highest activity,[5],10^−4 mol · l^−1
"CC(CO)CCNc1ncnc2nc[nH]c12 (racemic) [Dihydrozeatin (DHZ), dihydrozeatin]",activity (%) [10^−5 mol · l^−1 BAP = 100%],[1],78%
same,IC50,"[6]; Homo sapiens, HL-60, 72 h",> 167 µM
same,IC50,"[2]; Homo sapiens, K562, 72 h",> 167 µM
same,IC50,"HOS (human osteosarcoma); Homo sapiens, 72 h",> 167 µM
same,IC50,[3]; 72 h,> 167 µM
same,IC50,"[4]; Homo sapiens, MCF7, 72 h",> 167 µM
same,activity (%) [10^−4 mol · l^−1 BAP = 100%],[5],81%
CS(=O)(=O)O.Fc1ccc(CNc2ncnc3nc[nH]c23)c(F)c1 [2.4diFBAP mesylate],activity (%) [10^−4 mol · l^−1 BAP = 100%],[5],141%
same,concentration with highest activity,[5],10^−5 mol · l^−1
"CS(=O)(=O)O.Clc1ccccc1CNc1ncnc2nc[nH]c12 [2ClBAP mesylate, 6-(2-chlorobenzylamino)purine mesylate]",activity (%) [10^−5 mol · l^−1 BAP = 100%],[1],97%
same,IC50,[2]; mesylate,90.4 µM
same,IC50,HOS (human osteosarcoma); mesylate,100 µM
same,IC50,[3]; mesylate,112 µM
same,IC50,[4]; mesylate,128 µM
same,activity (%) [10^−4 mol · l^−1 BAP = 100%],[5],122%
"CS(=O)(=O)O.Fc1ccccc1CNc1ncnc2nc[nH]c12 [2FBAP mesylate, 6-(2-fluorobenzylamino)purine mesylate]",activity (%) [10^−5 mol · l^−1 BAP = 100%],[1],110%
same,IC50,"[6]; Homo sapiens, HL-60, 72 h",126 µM
same,IC50,[2]; mesylate,70.7 µM
same,IC50,[3]; mesylate,99.5 µM
same,activity (%) [10^−4 mol · l^−1 BAP = 100%],[5],175%
Fc1ccc(CNc2ncnc3nc[nH]c23)c(F)c1 [2MBAP mesylate],activity (%) [10^−5 mol · l^−1 BAP = 100%],[1],121%
same,concentration with highest activity,[1],10^−6 mol · l^−1
same,activity (%) [10^−4 mol · l^−1 BAP = 100%],[5],157%
same,concentration with highest activity,[5],10^−4 mol · l^−1
"COc1ccccc1CNc1ncnc2nc[nH]c12.CS(=O)(=O)O [2MeOBAP mesylate, 6-(2-methoxybenzylamino)purine mesylate]",activity (%) [10^−5 mol · l^−1 BAP = 100%],[1],82%
same,IC50,[2]; mesylate,117 µM
same,IC50,[3]; mesylate,98.2 µM
same,IC50,[4]; mesylate,> 167 µM
same,activity (%) [10^−4 mol · l^−1 BAP = 100%],[5],271%
"COc1ccccc1CNc1ncnc2nc[nH]c12 [2MeOBAP, 6-(2-methoxybenzylamino)purine]",activity (%) [10^−5 mol · l^−1 BAP = 100%],[1],79%
same,IC50,"[6]; Homo sapiens, HL-60, 72 h",> 167 µM
same,IC50,"[2]; Homo sapiens, K562, 72 h",116 µM
same,IC50,"HOS (human osteosarcoma); Homo sapiens, 72 h",> 167 µM
same,IC50,[3]; 72 h,63.4 µM
same,IC50,"[4]; Homo sapiens, MCF7, 72 h",153 µM
"COc1cccc(CNc2ncnc3nc[nH]c23)c1O [2OH3MeOBAP mesylate, 6-(2-hydroxy-3-methoxybenzylamino)purine mesylate]",IC50,[6]; mesylate,67.8 µM
same,IC50,[3]; mesylate,51 µM
same,IC50,[4]; mesylate,32.1 µM
"COc1cccc(CNc2ncnc3nc[nH]c23)c1O [2OH3MeOBAP, 6-(2-hydroxy-3-methoxybenzylamino)purine]",IC50,"[6]; Homo sapiens, HL-60, 72 h",64.3 µM
same,IC50,"[2]; Homo sapiens, K562, 72 h",> 167 µM
same,IC50,[3]; 72 h,41.6 µM
same,IC50,"[4]; Homo sapiens, MCF7, 72 h",26.6 µM
CS(=O)(=O)O.Fc1cc(F)cc(CNc2ncnc3nc[nH]c23)c1 [3.5diFBAP mesylate],activity (%) [10^−4 mol · l^−1 BAP = 100%],[5],168%
same,concentration with highest activity,[5],10^−5 mol · l^−1
"CS(=O)(=O)O.Clc1cccc(CNc2ncnc3nc[nH]c23)c1 [3ClBAP mesylate, 6-(3-chlorobenzylamino)purine mesylate]",activity (%) [10^−5 mol · l^−1 BAP = 100%],[1],101%
same,activity (%) [10^−4 mol · l^−1 BAP = 100%],[5],82%
"CS(=O)(=O)O.Fc1cccc(CNc2ncnc3nc[nH]c23)c1 [3FBAP mesylate, 6-(3-fluorobenzylamino)purine mesylate]",activity (%) [10^−5 mol · l^−1 BAP = 100%],[1],137%
same,IC50,[2]; mesylate,136 µM
same,IC50,[4]; mesylate,> 167 µM
same,activity (%) [10^−4 mol · l^−1 BAP = 100%],[5],210%
Clc1ccc(CNc2ncnc3nc[nH]c23)cc1 [4ClBAP],IC50,[6],> 167 µM
same,IC50,[2],> 167 µM
same,IC50,HOS (human osteosarcoma),> 167 µM
same,IC50,[3],> 167 µM
same,IC50,[4],> 167 µM
"CS(=O)(=O)O.Fc1ccc(CNc2ncnc3nc[nH]c23)cc1 [4FBAP mesylate, 6-(4-fluorobenzylamino)purine mesylate]",activity (%) [10^−5 mol · l^−1 BAP = 100%],[1],126%
same,activity (%) [10^−4 mol · l^−1 BAP = 100%],[5],98%
"COc1ccc(CNc2ncnc3nc[nH]c23)cc1 [4MeOBAP mesylate, 6-(4-methoxybenzylamino)purine mesylate]",IC50,[2]; mesylate,118 µM
Fc1ccc(CNc2ncnc3nc[nH]c23)c(F)c1 [6-(2.4-difluorobenzylamino)purine (2.4diFBAP)],activity (%) [10^−4 mol · l^−1 BAP = 100%],[5],139%
same,concentration with highest activity,[5],10^−5 mol · l^−1
Fc1cc(F)cc(CNc2ncnc3nc[nH]c23)c1 [6-(3.5-difluorobenzylamino)purine],activity (%) [10^−4 mol · l^−1 BAP = 100%],[5],156%
same,concentration with highest activity,[5],10^−5 mol · l^−1
"C/C(=C/CNc1ncnc2nc[nH]c12)CO [Cis-zeatin (cZ), Cis-zeatin]",IC50,[6],> 167 µM
same,IC50,HOS (human osteosarcoma),> 167 µM
same,IC50,[3],> 167 µM
same,IC50,[4],> 167 µM
"C/C(=C/CNc1ncnc2[nH]cnc12)CO [cZ mesylate, (Z)-4-((9H-Purin Ylamino)-2-Methylbut-2-En-1-ol) Methanesulphonate]",IC50,[3],> 167 µM
same,IC50,[4],> 167 µM
CS(=O)(=O)O.Oc1cccc(CNc2ncnc3[nH]cnc23)c1 [m-topolin mesylate],Length of plants,[7]; application BBCH 31-33,83.1 cm
same,Medium tillers (number),[7]; application BBCH 31-33,1.25
same,Number of spikes per square meter,[7]; application BBCH 31-33,721.6
same,SUM of tillers,[7]; application BBCH 31-33,5.5
same,Strong tillers (number),[7]; application BBCH 31-33,2.45
same,Weak tillers (number),[7]; application BBCH 31-33,1.8
same,Grain yield (t/ha) at 14% humidity,"[7]; application BBCH 31-33, spring barley",8.01 t/ha
same,"Grain yield, % compared to control",[7]; [8],108.03%
same,"Length of plants, % compared to control",[7]; [8],100.36%
same,"Medium tillers, % compared to control",[7]; [8],59.52%
same,"Number of spikes per square meter, % compared to control",[7]; [8],106.62%
same,"SUM of tillers, % compared to control",[7]; [8],95.65%
same,"Strong tillers, % compared to control",[7]; [8],136.11%
same,"Weak tillers, % compared to control",[7]; [8],97.3%
